Seven compounds from US11203595B2, “Aza-indazole compounds for use in tendon and/or ligament injuries” (NOVARTIS AG, priority 2016, dated 2021) can be followed below.

The test system of series [1] is Scleraxis (Scx) gene transcriptional activation, TT-D6 Scx-luciferase (ScxL) cell line. As to the kind of experiment: SCX-LUC in vitro assay (scleraxis-luciferase reporter). The conditions noted are these: read-out: Scx-Luc (EC50 μM). Format: cell-based, mouse.
Series [2] in a line: In-vivo release from microparticles in a rat model. Conditions: PLGA microparticles.
A short description of series [3]: Cumulative release of microparticle formulations in PBS buffer (FIG. 1). Format: physicochemical. Conditions: incorporated into PLGA microparticles; following the initial burst; PBS buffer pH 7.4, 1% Tween 20.
Where [4] appears, read: Mus musculus, 96 h, TT-D6 Scx-luciferase cells, 1 ng/ml TGFβ1, four days.

Read-outs that look alike come from different tables or passages of the source.

Take `Nc1n[nH]c2ccc(-c3ccc(S(=O)(=O)N4CCC[C@H]4CO)cc3Cl)nc12` [(S)-(1-((4-(3-amino-1H-pyrazolo[4,3-b]pyridin-5-yl)-3-chlorophenyl)sulfonyl)pyrrolidin-2-yl)methanol]: the EC50 in series [1] (setting [4]) is over 10 µM.
With `Nc1n[nH]c2ccc(-c3ccc(S(=O)(=O)NC4CCC(O)(C(F)(F)F)CC4)cc3Cl)nc12` [4-(3-amino-1H-pyrazolo[4,3-b]pyridin-5-yl)-3-chloro-N-((1R,4R)-4-hydroxy-4-(trifluoromethyl)cyclohexyl)benzenesulfonamide], the EC50 in series [1] (TT-D6 Scx-luciferase cells, 1 ng/ml TGFβ1, four days) is over 10 µM.
As for `Nc1n[nH]c2ccc(-c3ccc(S(=O)(=O)NC4CCS(=O)(=O)CC4)cc3Cl)nc12` [Example 50, 4-(3-amino-1H-pyrazolo[4,3-b]pyridin-5-yl)-3-chloro-N-(1,1-dioxidotetrahydro-2H-thiopyran-4-yl)benzenesulfonamide], the half-maximal effective concentration (EC50) in series [1] (setting [4]) is over 10 µM.
`Nc1n[nH]c2ccc(-c3ccc(S(=O)(=O)N[C@H]4CCC[C@H]4O)cc3Cl)nc12` [Example 35, 4-(3-amino-1H-pyrazolo[4,3-b]pyridin-5-yl)-3-chloro-N-((1S,2R)-2-hydroxycyclopentyl)benzenesulfonamide]: the concentration for a half-maximal effect (EC50) in series [1] (Mus musculus, 96 h) was found to be 2.73 µM.
In turn, `Cc1cc(S(=O)(=O)N[C@H]2C[C@](O)(C(F)(F)F)C2)ccc1-c1ccc2[nH]nc(N)c2n1` [Example 2, 4-(3-amino-1H-pyrazolo[4,3-b]pyridin-5-yl)-N-((1s,3s)-3-hydroxy-3-(trifluoromethyl)cyclobutyl)-3-methylbenzenesulfonamide] had an extended release in-vivo in series [2] of 4 weeks. Besides, the “period of steady state release of drug” value in series [3] is on record as 21 days.
For the compound `CNS(=O)(=O)c1ccc(S(=O)(=O)Nc2ccc(-c3ccc4[nH]nc(N)c4n3)c(Cl)c2)cc1` [Example 76, N1-(4-(3-amino-1H-pyrazolo[4,3-b]pyridin-5-yl)-3-chlorophenyl)-N4-methylbenzene-1,4-disulfonamide], in series [1] (setting [4]), the EC50 came to 0.003 µM.
On the same count and under the same terms, to `Nc1n[nH]c2ccc(-c3ccc(NS(=O)(=O)c4ccccc4)cc3Cl)nc12` [Example 46, N-(4-(3-amino-1H-pyrazolo[4,3-b]pyridin-5-yl)-3-chlorophenyl)benzenesulfonamide] belongs 0.01 µM.
